Results published in patent US10143746B2, “Immunomodulators” (BRISTOL-MYERS SQUIBB COMPANY, priority 2016, dated 2018).
Where a SMILES comes first, the peptide text is derived from it. Bridges are numbered along the chain shown (N, C = ends). [ ]: non-standard residue; d: D form. Hyp = O=C(O)[C@@H]1C[C@@H](O)CN1; NMeNle = CCCC[C@H](NC)C(=O)O; NMeA = CN[C@@H](C)C(=O)O; Orn = NCCC[C@H](N)C(=O)O; Dab = NCC[C@H](N)C(=O)O

molecular target: PD-1-Ig binding to PD-L1-TVMV-His (PD-L1-His) (Homo sapiens (Human), UniProt Q9NZQ7); experiment: PD-1/PD-L1 Homogenous Time-Resolved Fluorescence (HTRF) binding assay (PD-1-Ig/PD-L1-His); conditions: PD-1-Ig (20 nM)/PD-L1-His (10 nM); range classes
Sequence (Q9NZQ7 other isoform, or with tags, fused parts or gaps): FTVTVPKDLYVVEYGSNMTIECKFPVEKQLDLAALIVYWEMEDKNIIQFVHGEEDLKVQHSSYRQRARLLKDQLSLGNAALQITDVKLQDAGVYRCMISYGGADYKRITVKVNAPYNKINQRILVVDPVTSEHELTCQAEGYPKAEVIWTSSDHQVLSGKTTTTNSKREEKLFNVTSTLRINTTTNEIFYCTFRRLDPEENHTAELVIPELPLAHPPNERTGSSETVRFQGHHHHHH
From the text: Methods for Testing the Ability of Macrocyclic Compounds to Compete for the Binding of PD-1 to PD-L1 Using Homogenous Time-Resolved Fluorescence (HTRF) Binding Assays
The ability of the macrocyclic compounds of the present disclosure to bind to PD-L1 was investigated using a PD-1/PD-L1 Homogenous Time-Resolved Fluorescence (HTRF) binding assay.
Homogenous Time-Resolved Fluorescence (HTRF) Assays of Binding of Soluble PD-1 to Soluble PD-L1. Soluble PD-1 and soluble PD-L1 refers to proteins with carboxyl-end truncations that remove the transmembrane-spanning regions and are fused to heterologous sequences, specifically the Fc portion of the human immunoglobulin G sequence (Ig) or the hexahistidine epitope tag (His). All binding studies were performed in an HTRF assay buffer consisting of dPBS supplemented with 0.1% (w/v) bovine serum albumin and 0.05% (v/v) Tween-20. For the PD-1-Ig/PD-L1-His binding assay, inhibitors were pre-incubated with PD-L1-His (10 nM final) for 15 m in 4 μl of assay buffer, followed by addition of PD-1-Ig (20 nM final) in 1 μl of assay buffer and further incubation for 15 m. PD-L1 fusion proteins from either human, cynomologous macaques, mouse, or other species were used. HTRF detection was achieved using europium crypate-labeled anti-Ig monoclonal antibody (1 nM final) and allophycocyanin (APC) labeled anti-His monoclonal antibody (20 nM final). Antibodies were diluted in HTRF detection buffer and 5 μl was dispensed on top of binding reaction. […] Additional binding assays were established between PD-1-Ig/PD-L2-His (20 and 5 nM, respectively), CD80-His/PD-L1-Ig (100 and 10 nM, respectively) and CD80-His/CTLA4-Ig (10 and 5 nM, respectively).
Recombinant Proteins. […] Human PD-L2-His (Sino Biologicals), CD80-His (Sino Biologicals), CTLA4-Ig (RnD Systems) were all obtained through commercial sources.

| Structure (SMILES) | IC50 [nM] |
| --- | --- |
| CCCC[C@H]1C(=O)N(C)[C@@H](CCCC)C(=O)N[C@@H](CCCNC(=N)N)C(=O)N[C@H](C(=O)NCC(N)=O)CSCC(=O)N[C@@H](Cc2ccc(O)cc2)C(=O)N(C)[C@@H](C)C(=O)N[C@H]2CCCNC(=O)CC[C@H](NC(=O)[C@H](C)NC(=O)[C@@H]3CCCN3C2=O)C(=O)N2C[C@H](O)C[C@H]2C(=O)N[C@@H](Cc2c[nH]c3ccccc23)C(=O)N[C@@H](CO)C(=O)N[C@@H](Cc2c[nH]c3ccccc23)C(=O)N1C [Example 1402] ({CH2CO}-Y[NMeA][Orn]PAE[Hyp]WSW[NMeNle][NMeNle]RCG-NH2; lactam 3-6; thioether N-14) | 10 to 99 |
| CCCC[C@H]1C(=O)N(C)[C@@H](CCCC)C(=O)N[C@@H](C)C(=O)N[C@H](C(=O)NCC(N)=O)CSCC(=O)N[C@@H](Cc2ccc(O)cc2)C(=O)N(C)[C@@H](C)C(=O)N[C@H]2CC(=O)NCC[C@H](NC(=O)[C@H](Cc3cnc[nH]3)NC(=O)[C@@H]3CCCN3C2=O)C(=O)N2C[C@H](O)C[C@H]2C(=O)N[C@@H](Cc2c[nH]c3ccccc23)C(=O)N[C@@H](CO)C(=O)N[C@@H](Cc2c[nH]c3ccccc23)C(=O)N1C [Example 1500] ({CH2CO}-Y[NMeA]DPH[Dab][Hyp]WSW[NMeNle][NMeNle]ACG-NH2; lactam 3-6; thioether N-14) | 10 to 99 |
| CCCC[C@H]1C(=O)N(C)[C@@H](CCCC)C(=O)N[C@H]2CCC(=O)NCCCC[C@H](NC(=O)[C@H](Cc3c[nH]c4ccccc34)NC(=O)[C@@H]3C[C@@H](O)CN3C(=O)[C@@H]3CCCCNC(=O)C[C@H](NC(=O)[C@H](C)N(C)C(=O)[C@H](Cc4ccc(O)cc4)NC(=O)CSC[C@@H](C(=O)NCC(N)=O)NC2=O)C(=O)N2CCC[C@H]2C(=O)N[C@@H](Cc2c[nH]cn2)C(=O)N3)C(=O)N[C@@H](Cc2c[nH]c3ccccc23)C(=O)N1C [Example 5005] ({CH2CO}-Y[NMeA]DPHK[Hyp]WKW[NMeNle][NMeNle]ECG-NH2; lactam 3-6, 9-13; thioether N-14) | 10 to 99 |

Second part, the compound after the results:

| IC50 [nM] | Structure (SMILES) |
| --- | --- |
| 100 to 1000 | CCCC[C@H]1C(=O)N(C)[C@@H](CCCC)C(=O)N[C@@H](CC(C)C)C(=O)N[C@H](C(=O)NCC(N)=O)CSCC(=O)N[C@@H](Cc2ccc(O)cc2)C(=O)N(C)[C@@H](C)C(=O)N[C@H]2CCC(=O)NCCCC[C@H](NC(=O)[C@@H]3CCCN3C2=O)C(=O)N[C@@H](CC(C)C)C(=O)N2CCC[C@H]2C(=O)N[C@@H](Cc2c[nH]c3ccccc23)C(=O)N[C@@H](CO)C(=O)N[C@@H](Cc2c[nH]c3ccccc23)C(=O)N1C [Example 10501] |
| 10 to 99 | CCCC[C@H]1C(=O)N(C)[C@@H](CCCC)C(=O)N[C@@H](C)C(=O)N[C@H](C(=O)NCC(N)=O)CSCC(=O)N[C@@H](Cc2ccc(O)cc2)C(=O)N(C)[C@@H](C)C(=O)N[C@H]2CCC(=O)NCCC[C@H](NC(=O)[C@H](Cc3cnc[nH]3)NC(=O)[C@@H]3CCCN3C2=O)C(=O)N2C[C@H](O)C[C@H]2C(=O)N[C@@H](Cc2c[nH]c3ccccc23)C(=O)N[C@@H](CO)C(=O)N[C@@H](Cc2c[nH]c3ccccc23)C(=O)N1C [Example 1505] ({CH2CO}-Y[NMeA]EPH[Orn][Hyp]WSW[NMeNle][NMeNle]ACG-NH2; lactam 3-6; thioether N-14) |
| 100 to 1000 | CCCC[C@H]1C(=O)N(C)[C@@H](CCCC)C(=O)N[C@@H](CC(C)C)C(=O)N[C@H](C(=O)NCC(N)=O)CSCC(=O)N[C@@H](Cc2ccc(O)cc2)C(=O)N(C)[C@@H](C)C(=O)N[C@H]2CCC(=O)NC[C@H](NC(=O)[C@@H]3CCCN3C2=O)C(=O)N[C@@H](CC(C)C)C(=O)N2CCC[C@H]2C(=O)N[C@@H](Cc2c[nH]c3ccccc23)C(=O)N[C@@H](CO)C(=O)N[C@@H](Cc2c[nH]c3ccccc23)C(=O)N1C [Example 10500] |
